Patent US20240067685A1, “HIDDEN ANTIBIOTICS IN THE HUMAN PROTEOME” (priority 2022, published 2024)
≈ marks a conversion by molar mass, not a printed value. Where “and” joins values, the source holds several entries; their conditions need not be identical. Equal values may be shown once. Read-outs that look alike come from different tables or passages of the source. Non-standard residues stand in square brackets, D forms with d. Residues, ends and D or L forms follow the SMILES beside them. No end group written: not given here.

Columns and labels:
S. aureus ATCC 12600 [1] = assay: microbe, parasite or virus in culture; conditions: for MIC values: conventional antimicrobial agents, Staphylococcus aureus ATCC 12600
Procedure: (§1) Antimicrobial activity. The antimicrobial activity of ApoB-derived encrypted peptides was assessed against a panel of skin pathogens, such as S. epidermidis ATCC 35984, S. aureus ATCC 12600, A. baumannii ATCC 17878, K. pneumoniae ATCC 700603, S. aureus MRSA (WK7-2), E. faecalis ATCC 29212 and P. aeruginosa PAO1 by using the broth microdilution method. ^20 Bacteria were grown to mid-logarithmic phase in MHB at 37° C. […] Following incubation over-night, each sample was diluted, plated on TSA, and incubated at 37° C. for 24 h to count the number of colonies. All experiments were performed in three independent replicates.

[2] = system: S. epidermidis ATCC 35984; assay: microbe, parasite or virus in culture; conditions: for MIC values: conventional antimicrobial agents, Staphylococcus epidermidis ATCC 35984
Procedure: as §1

[3] = system: P. aeruginosa wild-type PAO1
Procedure: as §1

S. aureus MRSA (WKZ-2) = system: S. aureus MRSA (WKZ-2)
Procedure: as §1

in vitro = conditions: 25% fetal bovine serum
Procedure: To determine its proteolytic stability, it was assessed whether (ri)-r(P)ApoBS^Pro was less susceptible to serum proteases compared to its parent peptide r(P)ApoBS^Pro.
Stability assay. The resistance to enzymatic degradation assay was performed according to the method described by Powell et al. ^72 Briefly, peptides at 2 mg mL^−1 were exposed to a solution of 25% fetal bovine serum in water. Aliquots were collected after 0.5, 1, 2, and 4 h and 10 μL of trifluoroacetic acid was added to them while the samples were on ice for 10 min. The enzymatic degradation of peptides was followed by reverse-phase high performance liquid chromatography coupled to mass spectrometry (RP-HPLC/ESI-MS). The percentage of remaining peptide was calculated by integrating the area under the curve related to the peptide at time point zero.
where AUCX is the area under the curve of the peak related to the peptide after t h (t=0.5, 1, 2, and 4 h), and AUC0 is the area under the curve of the peak related to the peptide at the beginning of the experiment. Three independent experimental replicates were performed, as previously described. ^73

A. baumannii ATCC 17878 [4] = assay: microbe, parasite or virus in culture; conditions: for MIC values: conventional antimicrobial agents, Acinetobacter baumannii ATCC 17878
Procedure: as §1

[5] = system: K. pneumoniae ATCC 700603; assay: microbe, parasite or virus in culture; conditions: for MIC values: conventional antimicrobial agents, Klebsiella pneumoniae ATCC 700603
Procedure: as §1

A. baumannii ATCC 17878 [6] = assay: Bacterial resistance development assay (30 days); assay type: cell-based, Acinetobacter baumannii; conditions: for MIC: Acinetobacter baumannii; for change in MIC (resistance development): 30 days of treatment
Procedure: (§2) Experiments were performed to assess whether prolonged exposure to ApoB-derived encrypted peptides led to the evolution of resistant phenotypes, since classical AMPs are known to be less likely to trigger bacterial resistance than standard antibiotics. ^41 The Gram-negative bacterial pathogen A. baumannii ATCC 17878, and the Gram-positives S. epidermidis ATCC 35984, and S. aureus ATCC 12600 were longitudinally treated with r(P)ApoBL^Pro, r(P)ApoBL^Ala, and r(P)ApoBS^Pro. Control sample groups were treated with the antibiotics colistin, gentamicin, and mupirocin, selected based on their distinct mechanisms of action, the former destabilizing the bacterial extracellular membrane and the latter acting on intracellular targets. […] A. baumannii resistance towards colistin increased by up to 8-fold, whereas S. epidermidis resistance to gentamicin and mupirocin increased by up to 16- and 8-fold, respectively (FIG. 3C). […] For example, both colistin-resistant A. baumannii ATCC 17878 and gentamicin-resistant S. epidermidis ATCC 35984 presented wrinkled borders (FIG. 2E) as opposed to the smooth colonies' characteristic of their morphology at the beginning of the experiment (FIG. 2E).
(§3) Bacterial resistance development assay. S. epidermidis ATCC 35984, S. aureus ATCC 12600 and A. baumannii ATCC 17878 bacterial strains were exposed to colistin, gentamicin, mupirocin, r(P)ApoBL^Pro, r(P)ApoBL^Ala or r(P)ApoBS^Pro. Once, we detected the MIC values for each peptide or antibiotic against the bacterial strains tested, we transferred bacterial cells that survived the exposure at a sub-inhibitory (MIC/2) concentration, and they were re-grown and re-exposed to the respective peptide or antibiotic. ^20 The treatment was repeated for 30 days. Strains that developed resistance to antibiotics presented higher MICs at subsequent passages and the cells from the last passage were isolated and stored for scanning electron microscopy analyses.

[7] = system: S. epidermidis ATCC 35984; assay: Bacterial resistance development assay (30 days); assay type: cell-based, Staphylococcus epidermidis; conditions: for change in MIC (resistance development): S. epidermidis, 30 days of treatment; for MIC: Staphylococcus epidermidis
Procedure: as §2, §3

S. aureus ATCC 12600 [8] = assay: Bacterial resistance development assay (30 days); assay type: cell-based, Staphylococcus aureus
Procedure: as §2, §3

E. faecalis ATCC 29212 = system: E. faecalis ATCC 29212
Procedure: as §1

[9] = Acinetobacter baumannii, ATCC17878, read-out: MIC values
[10] = Staphylococcus aureus, ATCC12600, read-out: MIC values
[11] = Staphylococcus epidermidis, ATCC35984, read-out: MIC values
[12] = Klebsiella pneumoniae, ATCC700603, read-out: MIC values

CC[C@@H](C)[C@@H](NC(=O)[C@H]1CCCN1C(=O)[C@@H](CO)NC(=O)[C@H]1CCCN1C(=O)[C@@H](CCCCN)NC(=O)[C@@H](CCCNC(=N)N)NC(=O)[C@H]1CCCN1C(=O)[C@H](NC(=O)[C@@H](CCCCN)NC(=O)[C@@H](CC(C)C)NC(=O)[C@@H](CC(C)C)NC(=O)[C@@H](CO)NC(=O)CN)C(C)C)C(=O)N[C@@H](C(=O)N[C@H](Cc1ccccc1)C(=O)N[C@H](CCCCN)C(=O)N[C@H](CC(C)C)C(=O)N[C@H](CCCCN)C(=O)NCC(=O)N1CCC[C@@H]1C(=O)N[C@H](CCCCN)C(=O)N[C@H](CC(C)C)C(=O)N[C@H](C)C(=O)N[C@@H](C(=O)N[C@H](Cc1c[nH]cn1)C(=O)N1CCC[C@@H]1C(=O)O)C(C)C)[C@H](C)CC [(ri)-r(P)ApoBS^Pro] (H-G[dS][dL][dL][dK][dV][dP][dR][dK][dP][dS][dP][dI][dI][dF][dK][dL][dK]G[dP][dK][dL][dA][dV][dH][dP]-OH; N-terminus and C-terminus assumed)
MIC (S. aureus ATCC 12600 [1]; ATCC 12600): 20 µM | MIC ([2]; ATCC 35984): 10 µM | MIC [3]: 10 µM (≈ 28.2 µg/mL) | MIC (S. aureus MRSA (WKZ-2)): 10 µM (≈ 28.2 µg/mL) | remaining at 4 h, 2 mg mL^-1 (in vitro; bovine): ~50%

O=C(OOC(=O)c1ccccc1)c1ccccc1 [Benzoyl Peroxide]
MIC (A. baumannii ATCC 17878 [4]; [9]): 32 µg/mL | MIC values [5]: Resistant | MIC (S. aureus ATCC 12600 [1]; [10]): 16 µg/mL | MIC [2, 11]: 16 µg/mL

CCC[C@@H]1C[C@@H](C(=O)N[C@@H]([C@H]2O[C@H](SC)[C@H](O)[C@@H](O)[C@H]2O)[C@H](C)Cl)N(C)C1 [Clindamycin]
MIC (A. baumannii ATCC 17878 [4]; [9]): 62.5 µg/mL | MIC [5, 12]: 125 µg/mL | MIC (S. aureus ATCC 12600 [1]; [10]): 0.5 µg/mL

O=C(O)CN(CCN(CC(=O)O)CC(=O)O)CC(=O)O [EDTA]
MIC values (A. baumannii ATCC 17878 [4]): 24.5 µg/mL (≈ 83.8 µM) | MIC values [5]: 49 µg/mL (≈ 168 µM) | MIC values (S. aureus ATCC 12600 [1]): 24.5 µg/mL (≈ 83.8 µM) | MIC values [2]: 196 µg/mL (≈ 671 µM)

CC[C@H]1OC(=O)[C@H](C)[C@@H](O[C@H]2C[C@@](C)(OC)[C@@H](O)[C@H](C)O2)[C@H](C)[C@@H](O[C@@H]2O[C@H](C)C[C@H](N(C)C)[C@H]2O)[C@](C)(O)C[C@@H](C)C(=O)[C@H](C)[C@@H](O)[C@]1(C)O [Erytromycin]
MIC (A. baumannii ATCC 17878 [4]; [9]): 125 µg/mL | MIC [5, 12]: 7.8 µg/mL | MIC (S. aureus ATCC 12600 [1]; [10]): 15 µg/mL | MIC values [2]: Resistant

CC(=O)O[C@H]1C[C@@]2(C)[C@@H](C[C@@H](O)[C@H]3[C@@]4(C)CC[C@@H](O)[C@@H](C)[C@@H]4CC[C@@]32C)/C1=C(\CCC=C(C)C)C(=O)O [Fusidic acid]
MIC (A. baumannii ATCC 17878 [4]; [9]): 2.25 µg/mL | MIC values [5]: Resistant | MIC (S. aureus ATCC 12600 [1]; [10]): 0.06 µg/mL | MIC [2, 11]: 0.06 µg/mL

CN[C@H](CC(C)C)C(=O)N[C@H]1C(=O)N[C@@H](CC(N)=O)C(=O)N[C@H]2C(=O)N[C@H]3C(=O)N[C@H](C(=O)N[C@H](C(=O)O)c4cc(O)cc(O)c4-c4cc3ccc4O)[C@H](O)c3ccc(c(Cl)c3)Oc3cc2cc(c3O[C@@H]2O[C@H](CO)[C@@H](O)[C@H](O)[C@H]2O[C@H]2C[C@](C)(N)[C@H](O)[C@H](C)O2)Oc2ccc(cc2Cl)[C@H]1O [Vancomycin]
MIC (A. baumannii ATCC 17878 [4]; [9]): 50 µg/mL | MIC [5, 12]: 50 µg/mL | MIC (S. aureus ATCC 12600 [1]; [10]): 0.78 µg/mL | MIC [2, 11]: 1.56 µg/mL

C/C(=C\C(=O)OCCCCCCCCC(=O)O)C[C@@H]1OC[C@H](C[C@@H]2O[C@H]2[C@@H](C)[C@H](C)O)[C@@H](O)[C@H]1O [mupirocin]
MIC (A. baumannii ATCC 17878 [6]; ATCC17878, read-out: MIC after 30 days of treatment): 400 µg/mL and 800 µM | MIC (A. baumannii ATCC 17878 [6]; ATCC17878, read-out: MIC at start of resistance study): 100 µg/mL and 200 µM | change in MIC (resistance development) [7]: up to 8 fold | MIC ([7]; ATCC35984, read-out: MIC after prolonged treatment): 0.012 µg/mL and 0.024 µM | MIC ([7]; ATCC35984, read-out: MIC at start of resistance study): 0.0015 µg/mL and 0.003 µM | MIC before increase (S. aureus ATCC 12600 [8]; before the increase): 0.024 μg mL^−1 and 0.048 μmol L^−1 | MIC after increase (S. aureus ATCC 12600 [8]; between days 15 and 21 of treatment): 0.19 μg mL^−1 and 0.38 μmol L^−1 | change in MIC (resistance development) (S. aureus ATCC 12600 [8]; prolonged treatment): 8 fold

Colistin
MIC values (A. baumannii ATCC 17878 [4]): 3.12 µg/mL | MIC values [5]: 3.12 µg/mL | MIC values (S. aureus ATCC 12600 [1]): 12.5 µg/mL | MIC values [2]: 3.12 µg/mL | change in MIC (resistance development) (A. baumannii ATCC 17878 [6]; A. baumannii): up to 8 fold | MIC after 30 days of treatment (A. baumannii ATCC 17878 [6]; A. baumannii): 25 µg/mL | MIC after 30 days of treatment (A. baumannii ATCC 17878 [6]; A. baumannii, listed as colistin): 21.6 µM | MIC at start of resistance study (A. baumannii ATCC 17878 [6]; A. baumannii, before prolonged treatment): 3.12 μg mL^−1 and 2.7 μmol L^−1 | change in MIC (resistance development) [7]: No significant resistance development

Gentamicin
MIC values (A. baumannii ATCC 17878 [4]): 0.25 µg/mL | MIC values [5]: 0.5 µg/mL | MIC values (S. aureus ATCC 12600 [1]): 1 µg/mL | MIC values [2]: 2 µg/mL | change in MIC (resistance development) (A. baumannii ATCC 17878 [6]; A. baumannii): did not change | change in MIC (resistance development) [7]: up to 16 fold

PHVALKAGKLKFIIPSPKRPVKLLSGGNTLHLVSTTKT [r(P)ApoBL^Ala]
MIC (A. baumannii ATCC 17878 [4]; ATCC 17878): 2.5 µM | MIC ([5]; ATCC 700603): 5 µM | MIC (S. aureus ATCC 12600 [1]; ATCC 12600): 20 µM | MIC ([2]; ATCC 35984): 10 µM | MIC (E. faecalis ATCC 29212): 10 µM | MIC [3]: 2.5 µM | MIC (S. aureus MRSA (WKZ-2)): 10 µM | stability in the presence of serum (in vitro): degraded within minutes

PHVALKPGKLKFIIPSPKRPVKLLSGGNTLHLVSTTKT [r(P)ApoBL^Pro]
MIC (A. baumannii ATCC 17878 [4]; ATCC 17878): 5 µM | MIC ([5]; ATCC 700603): 10 µM | MIC (S. aureus ATCC 12600 [1]; ATCC 12600): 20 µM | MIC ([2]; ATCC 35984): 10 µM | MIC (E. faecalis ATCC 29212): 20 µM | MIC [3]: 5 µM | MIC (S. aureus MRSA (WKZ-2)): 20 µM | stability in the presence of serum (in vitro): degraded within minutes

Polymyxin B
MIC values (A. baumannii ATCC 17878 [4]): 6.25 µg/mL | MIC values [5]: 6.25 µg/mL | MIC values (S. aureus ATCC 12600 [1]): 12.5 µg/mL | MIC values [2]: 3.12 µg/mL
